Experimental data: the Kinase Knowledgebase extract (Sharma et al. 2016)
Values joined by “and” are separate entries in the source; they are usually repeats but may differ in a detail not shown here. Equal entries are not always repeated.

target: PIK3CG (UniProt P48736); test: PIK3-gamma Enzyme Assay
Sequence (P48736 whole entry, looked up): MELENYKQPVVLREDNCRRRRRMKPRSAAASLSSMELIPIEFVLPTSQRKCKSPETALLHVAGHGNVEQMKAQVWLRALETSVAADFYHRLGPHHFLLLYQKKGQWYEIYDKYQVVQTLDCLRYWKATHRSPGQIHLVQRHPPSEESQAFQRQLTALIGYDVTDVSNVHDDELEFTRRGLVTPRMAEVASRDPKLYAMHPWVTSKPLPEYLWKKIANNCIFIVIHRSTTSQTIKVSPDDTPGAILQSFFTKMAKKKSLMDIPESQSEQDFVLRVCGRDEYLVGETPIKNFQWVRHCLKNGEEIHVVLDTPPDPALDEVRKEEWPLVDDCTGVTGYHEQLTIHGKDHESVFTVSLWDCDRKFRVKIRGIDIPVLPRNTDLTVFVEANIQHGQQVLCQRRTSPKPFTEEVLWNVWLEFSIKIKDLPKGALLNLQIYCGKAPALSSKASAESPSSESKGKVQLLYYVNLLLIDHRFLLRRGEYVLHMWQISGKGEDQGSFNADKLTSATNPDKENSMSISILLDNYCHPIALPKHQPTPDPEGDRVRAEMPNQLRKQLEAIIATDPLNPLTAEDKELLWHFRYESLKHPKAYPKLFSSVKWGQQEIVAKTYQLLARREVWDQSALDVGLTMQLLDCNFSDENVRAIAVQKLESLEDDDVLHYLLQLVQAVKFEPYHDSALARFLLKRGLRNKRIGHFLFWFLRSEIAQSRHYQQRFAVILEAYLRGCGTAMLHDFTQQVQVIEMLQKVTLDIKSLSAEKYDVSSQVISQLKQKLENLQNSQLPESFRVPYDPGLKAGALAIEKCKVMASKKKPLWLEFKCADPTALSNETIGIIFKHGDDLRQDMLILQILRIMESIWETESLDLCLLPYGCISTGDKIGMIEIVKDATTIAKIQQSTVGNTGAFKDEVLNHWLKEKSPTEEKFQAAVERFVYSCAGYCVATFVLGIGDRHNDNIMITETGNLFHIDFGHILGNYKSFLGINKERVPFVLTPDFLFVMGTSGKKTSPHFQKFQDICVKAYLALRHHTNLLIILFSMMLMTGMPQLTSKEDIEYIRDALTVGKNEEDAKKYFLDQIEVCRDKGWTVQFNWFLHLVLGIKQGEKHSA

SMILES	IC50
O=c1cc(N2CCOCC2)[nH]c2c(OCc3ccccc3)cccc12	2 µM

target: PIK3CB;PIK3CA (UniProt P42338); test: PI3-Kinase alpha/beta Inhibition

SMILES	IC50
Cc1ccc(Cc2cccc3c(=O)cc(N4CCOCC4)[nH]c23)cc1	2 µM
O=c1cc(N2CCOCC2)nc2c(OCc3ccccn3)cccn12	10 µM
O=c1cc(N2CCOCC2)[nH]c2c(Cc3ccccc3)cccc12	2 µM
O=c1cc(N2CCOCC2)nc2c(OCc3cccnc3)cccn12	10 µM
Cc1cc(C2CCN(C)C2=O)c2nc(N3CCOCC3)cc(=O)n2c1 (configuration not stated)	20 µM
O=c1cc(N2CCOCC2)oc2c(Oc3ccccc3)cccc12	0.1 µM and 0.05 µM
CC(C)(C)c1ccc(COc2cccn3c(=O)cc(N4CCOCC4)nc23)cc1	7.5 µM
O=c1cc(N2CCOCC2)nc2c(-c3ccccc3)cccn12	10.5 µM
O=c1cc(N2CCOCC2)[nH]c2c(Cc3ccc(F)cc3)cccc12	1 µM
O=c1cc(N2CCOCC2)oc2cc(/C=C/c3ccccc3)ccc12	10 µM
Cc1cc(-c2ccccc2)c2nc(N3CCOCC3)cc(=O)n2c1	9.8 µM
O=c1cc(N2CCOCC2)oc2c(OCc3cccnc3)cccc12	1 µM
O=c1cc(N2CCOCC2)nc2c(Cc3ccccc3)cccn12	1.5 µM
Cc1cc(NCC2CCNCC2)c2nc(N3CCOCC3)cc(=O)n2c1	1 µM
O=c1cc(N2CCOCC2)oc2cc(OCc3cccnc3)ccc12	2 µM
Cc1cc(Nc2ccccc2OCCN(C)C)c2nc(N3CCOCC3)cc(=O)n2c1	2 µM
Cc1cc(Nc2ccccc2C(F)(F)F)c2nc(N3CCOCC3)cc(=O)n2c1	5 µM
COc1cccc(COc2cccn3c(=O)cc(N4CCOCC4)nc23)c1	1 µM
Cc1cccn2c(=O)cc(N3CCOCC3)nc12	11.1 µM
Cc1ccc(S(=O)(=O)Oc2cccc3c(=O)cc(N4CCOCC4)[nH]c23)cc1	1 µM
Cc1c(Oc2ccccc2)ccc2c(=O)cc(N3CCOCC3)oc12	5 µM and 10 µM and 2 µM
O=c1cc(N2CCOCC2)oc2c(O)cccc12	25 µM
Cc1cc(Nc2ncccc2C)c2nc(N3CCOCC3)cc(=O)n2c1	10 µM
Cc1ccccc1-c1cccc2c(=O)cc(N3CCOCC3)oc12	2 µM
Cc1c(OCc2ccccc2)ccc2c(=O)cc(N3CCOCC3)oc12	10 µM
Cc1cc(NCc2ccc(Cl)cc2)c2nc(N3CCOCC3)cc(=O)n2c1	1 µM
Cc1cc(-c2ccccc2C(F)(F)F)c2nc(N3CCOCC3)cc(=O)n2c1	2 µM
Cc1cc(Nc2ccc(Cl)cc2)c2nc(N3CCOCC3)cc(=O)n2c1	1 µM

More lines, now with the values ahead:

IC50	SMILES
0.2 µM	Cc1cc(N[C@H](C)c2ccccc2)c2nc(N3CCOCC3)cc(=O)n2c1
0.1 µM	O=c1cc(N2CCOCC2)[nH]c2c(Oc3ccccc3)cccc12
0.5 µM	O=C(O)c1cccc(Oc2cccc3c(=O)cc(N4CCOCC4)[nH]c23)c1
1 µM	Cc1cc(N[C@@H](C)c2ccccc2)c2nc(N3CCOCC3)cc(=O)n2c1
0.5 µM	O=c1cc(N2CCOCC2)nc2c(OCc3ccccc3)cccn12
0.02 µM	Cc1cc(F)ccc1Oc1cccc2c(=O)cc(N3CCOCC3)[nH]c12
0.05 µM	Cc1cc(NCc2ccccc2Cl)c2nc(N3CCOCC3)cc(=O)n2c1
0.5 µM	O=c1cc(N2CCOCC2)nc2c(OCc3cccc(Cl)c3)cccn12
1 µM	Cc1cc(-c2ccsc2)c2nc(N3CCOCC3)cc(=O)n2c1
0.5 µM	Cc1cc(NCc2ccncc2)c2nc(N3CCOCC3)cc(=O)n2c1
1 µM	Cc1cc(Nc2ccncc2)c2nc(N3CCOCC3)cc(=O)n2c1
0.1 µM	O=c1cc(N2CCOCC2)[nH]c2c(OCc3ccccc3)cccc12
1 µM	Cc1cc(CCc2ccncc2)c2nc(N3CCOCC3)cc(=O)n2c1
0.5 µM	Cc1ccc(Oc2cccc3c(=O)cc(N4CCOCC4)[nH]c23)cc1
0.75 µM	Cc1cc(Oc2cccn3c(=O)cc(N4CCOCC4)nc23)ccc1F
1 µM	Cc1cc(Cl)ccc1Oc1cccc2c(=O)cc(N3CCOCC3)[nH]c12
0.2 µM	O=c1cc(N2CCOCC2)oc2c(-c3ccccc3C(F)(F)F)cccc12
1 µM	O=c1cc(N2CCOCC2)nc2c(Oc3ccccc3)cccn12
0.1 µM	Cc1cc(Nc2ccc(O)cc2)c2nc(N3CCOCC3)cc(=O)n2c1

IC50	SMILES
0.1 to 0.15 µM	Cc1cc(Oc2cccc3c(=O)cc(N4CCOCC4)oc23)ccc1F
0.05 µM	Cc1cccc(Oc2cccc3c(=O)cc(N4CCOCC4)[nH]c23)c1
1 µM	O=c1cc(N2CCOCC2)oc2c(-c3ccc(F)cc3)cccc12
1 µM	Cc1ccc(Oc2cc(C)cn3c(=O)cc(N4CCOCC4)nc23)cc1
0.05 µM	Cc1cc(CNc2ccccc2)c2nc(N3CCOCC3)cc(=O)n2c1
0.05 µM	Cc1ccccc1Oc1cccc2c(=O)cc(N3CCOCC3)[nH]c12
0.2 µM	Cc1cc(Nc2ccccc2O)c2nc(N3CCOCC3)cc(=O)n2c1
0.05 µM	Cc1cc(NCc2ccccc2)c2nc(N3CCOCC3)cc(=O)n2c1
0.5 µM	COC(=O)c1cccc(Oc2cccc3c(=O)cc(N4CCOCC4)[nH]c23)c1
0.1 µM	O=c1cc(N2CCOCC2)oc2c(Cc3ccccc3)cccc12
0.05 µM	O=c1cc(N2CCOCC2)[nH]c2c(Oc3ccc(F)cc3)cccc12
0.15 µM	O=c1cc(N2CCOCC2)[nH]c2c(Oc3ccccc3F)cccc12
0.2 µM	Cc1cc(Nc2ccc(F)cc2C)c2nc(N3CCOCC3)cc(=O)n2c1
0.5 µM	Cc1cc(NCc2ccccn2)c2nc(N3CCOCC3)cc(=O)n2c1
0.05 µM	COc1ccccc1CNc1cc(C)cn2c(=O)cc(N3CCOCC3)nc12
0.01 µM	Cc1cc(CNc2ccc(F)cc2C)c2nc(N3CCOCC3)cc(=O)n2c1
0.05 µM	O=c1cc(N2CCOCC2)[nH]c2c(Sc3ccccc3)cccc12
0.5 µM	O=c1cc(N2CCOCC2)oc2c(-c3ccccc3Cl)cccc12
0.1 µM	Cc1cc(Nc2ccc(O)cc2C)c2nc(N3CCOCC3)cc(=O)n2c1
